Measurements from PMC9667936, “Functional mapping of the 14-3-3 hub protein as a guide to design 14-3-3 molecular glues” (Chemical Science, 2022).
Where a SMILES comes first, the peptide text is derived from it.

T1: 14-3-3γ/ChREBP (Homo sapiens, UniProt P61981+Q9NP71)
T1 construct: made in house; host or cells: E. coli NiCo21 (DE3) for 14-3-3 gamma; ChREBP is a synthetic peptide
T1 sequence (P61981 1-247): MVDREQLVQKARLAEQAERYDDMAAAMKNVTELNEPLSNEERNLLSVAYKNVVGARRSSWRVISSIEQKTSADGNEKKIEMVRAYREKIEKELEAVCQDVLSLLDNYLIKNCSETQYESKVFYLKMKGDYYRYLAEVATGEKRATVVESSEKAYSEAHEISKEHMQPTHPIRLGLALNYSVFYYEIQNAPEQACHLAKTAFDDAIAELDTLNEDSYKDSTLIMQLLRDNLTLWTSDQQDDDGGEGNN
T1 sequence (Q9NP71 118-142 partner limits assumed): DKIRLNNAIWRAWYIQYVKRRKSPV

T2: ChREBP peptide (Homo sapiens, UniProt Q9NP71)
T2 chain: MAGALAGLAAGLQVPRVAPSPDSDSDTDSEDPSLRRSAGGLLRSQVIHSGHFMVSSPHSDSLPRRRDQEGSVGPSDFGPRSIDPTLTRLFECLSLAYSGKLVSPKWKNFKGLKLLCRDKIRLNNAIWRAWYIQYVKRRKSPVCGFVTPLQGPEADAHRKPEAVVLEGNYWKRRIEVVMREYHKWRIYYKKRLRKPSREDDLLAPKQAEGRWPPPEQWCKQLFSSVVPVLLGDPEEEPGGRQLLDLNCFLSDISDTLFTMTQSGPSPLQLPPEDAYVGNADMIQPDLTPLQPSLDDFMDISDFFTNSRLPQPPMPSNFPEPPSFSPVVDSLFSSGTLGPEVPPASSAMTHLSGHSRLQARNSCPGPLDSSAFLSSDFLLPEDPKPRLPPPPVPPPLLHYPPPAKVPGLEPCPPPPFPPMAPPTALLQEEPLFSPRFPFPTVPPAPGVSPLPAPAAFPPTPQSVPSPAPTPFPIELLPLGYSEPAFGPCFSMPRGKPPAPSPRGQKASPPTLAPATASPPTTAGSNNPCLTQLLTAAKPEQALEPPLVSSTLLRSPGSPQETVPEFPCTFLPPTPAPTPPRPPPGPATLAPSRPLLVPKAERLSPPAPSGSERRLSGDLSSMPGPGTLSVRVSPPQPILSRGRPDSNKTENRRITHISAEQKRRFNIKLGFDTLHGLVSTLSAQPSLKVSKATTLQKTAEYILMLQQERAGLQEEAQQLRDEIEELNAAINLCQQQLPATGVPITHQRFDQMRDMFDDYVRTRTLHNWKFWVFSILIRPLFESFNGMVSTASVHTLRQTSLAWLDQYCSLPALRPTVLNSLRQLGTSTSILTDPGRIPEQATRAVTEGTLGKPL


Key:
14-3-3γ/ChREBP = target: T1, 14-3-3γ/ChREBP; experiment: 2D FA titration of 14-3-3/ChREBP and cooperativity analysis with thermodynamic equilibrium model; type: binding; conditions: determined by the thermodynamic model from 2D FA titrations; 95% confidence interval; read-out: apparent binding affinity of ChREBP for 14-3-3 (K^IID)
Description: a four-parameter logistic model (4PL). Each measurement was performed in two independent […]
Fluorescence anisotropy (FA) - 2D-14-3-3/ChREBP titrations: 14-3-3γ was titrated in a 2-fold dilution series (starting at 300 µM 14-3-3γ) to 20 nM of fluorescein-labeled peptide 2d in FA buffer (10 mM HEPES pH 7.4, 150 mM NaCl, 0.1% (v/v) Tween20, 0.1% (w/v) BSA) in presence of 2-fold dilution series of unlabeled ChREBP peptide (0.01-10 µM). Dilution series were made in a polystyrene (non-binding) low-volume Corning Black Round Bottom 384-well plates (Corning 4514 or 4511). Measurements were performed directly after plate preparation, using a Tecan Infinite F500 plate reader at room temperature (lex: 485 ± 20 nm; lem: 535 ± 25 nm; mirror: Dichroic 510; flashes: 20; integration time: 50 ms; settle time:
0 ms; gain: optimal; and Z-position: calculated from well). Wells containing only FITC-peptide were used to set as G-factor at 35 mP. All data were analyzed using GraphPad Prism (7.00) for Windows and fitted using a four-parameter logistic model (4PL). […]
with R = 14-3-3, P = non-natural peptide (labelled), and C = ChREBP. The framework determined based on this system description the equilibrium equations needed to determine KDII and α. […] From this the model determined the KDII and α (with 95% confidence interval) and the error-landscape of the determine parameters. […]

ChREBP peptide = target: T2, ChREBP peptide; experiment: 2D fluorescence anisotropy titration, thermodynamic equilibrium model fit

Molecule	Kd (14-3-3γ/ChREBP)	Kd (ChREBP peptide)
CC[C@H](C)[C@H](NC(=O)[C@H](C)NC(=O)[C@H](CC(N)=O)NC(=O)[C@H](CC(N)=O)NC(=O)[C@H](CC(C)C)NC(=O)[C@H](CCCNC(=N)N)NC(=O)[C@@H](NC(=O)[C@H](CCCCN)NC(=O)[C@H](CC(=O)O)NC(C)=O)[C@@H](C)CC)C(=O)N[C@@H](Cc1c[nH]c2ccccc12)C(=O)N[C@@H](CCCNC(=N)N)C(=O)N[C@@H](C)C(=O)N[C@@H](Cc1c[nH]c2ccccc12)C(=O)N[C@@H](Cc1ccc(O)cc1)C(=O)N[C@H](C(=O)N[C@@H](CCC(N)=O)C(=O)N[C@@H](Cc1ccc(O)cc1)C(=O)N[C@H](C(=O)N[C@@H](CCCCN)C(=O)N[C@@H](CCCNC(=N)N)C(=O)N[C@@H](CCCNC(=N)N)C(=O)N[C@@H](CCCCN)C(=O)N[C@@H](CO)C(=O)N1CCC[C@H]1C(=O)N[C@H](C(N)=O)C(C)C)C(C)C)[C@@H](C)CC [ChREBP, reference compound] (Ac-DKIRLNNAIWRAWYIQYVKRRKSPV-NH2)	1600 nM	–
14-3-3γ (protein) VDREQLVQKARLAEQAERYDDMAAAMKNVTELNEPLSNEERNLLSVAYKNVVGARRSSWRVISSIEQKTSADGNEKKIEMVRAYREKIEKELEAVCQDVLSLLDNYLIKNCSETQYESKVFYLKMKGDYYRYLAEVATGEKRATVVESSEKAYSEAHEISKEHMQPTHPIRLGLALNYSVFYYEIQNAPEQACHLAKTAFDDAIAELDTLNEDSYKDSTLIMQLLRDNLTLWTSDQQDDDGGEGNN	–	1600 nM
